Some results are limits rather than exact numbers.

For ten compounds, IC50 results are on record in patent US20240425480A1, “NOVEL PYRIDINE DERIVATIVE COMPOUND AS RON INHIBITOR” (LG CHEM, LTD., priority 2021, published 2024).

The target in one test is RON (Homo sapiens, UniProt Q04912). Briefly: Inhibitory activity against RON, TR-FRET kinase assay. It counts as biochemical. To be noted: TR-FRET enzyme assay. Put shortly:
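Compounds (3-fold series from a 1 mM DMSO stock) were preincubated 20–30 min at RT with RON (0.4 nM solution) in pH 7.4 HEPES, 10 mM MgCl2 buffer. A 2× cocktail of 40 uM ULight-Poly GT and 100 nM ATP was then added for 60 min at RT. After EDTA stop, Eu anti-phosphotyrosine TR-FRET (665/620 nm) was read and IC50 derived.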

The target in a further test is cMET (Homo sapiens, UniProt P08581). Briefly: Inhibitory activity against MET (cMET), TR-FRET kinase assay. The class given is biochemical. To be noted: TR-FRET enzyme assay. The essentials:
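Human cMET (2 nM dilution) preincubated with compound 20-30 min at room temperature in HEPES pH 7.4 buffer with MnCl2/MgCl2, then 60 min with TK peptide and ATP substrate cocktail (5 uM peptide, 10 mM ATP, prepared at 2× final). EDTA-stopped; europium anti-phosphotyrosine TR-FRET read at 620/665 nm; pIC50 derived.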

Sequence of RON (Q04912 25-1400, species assumed): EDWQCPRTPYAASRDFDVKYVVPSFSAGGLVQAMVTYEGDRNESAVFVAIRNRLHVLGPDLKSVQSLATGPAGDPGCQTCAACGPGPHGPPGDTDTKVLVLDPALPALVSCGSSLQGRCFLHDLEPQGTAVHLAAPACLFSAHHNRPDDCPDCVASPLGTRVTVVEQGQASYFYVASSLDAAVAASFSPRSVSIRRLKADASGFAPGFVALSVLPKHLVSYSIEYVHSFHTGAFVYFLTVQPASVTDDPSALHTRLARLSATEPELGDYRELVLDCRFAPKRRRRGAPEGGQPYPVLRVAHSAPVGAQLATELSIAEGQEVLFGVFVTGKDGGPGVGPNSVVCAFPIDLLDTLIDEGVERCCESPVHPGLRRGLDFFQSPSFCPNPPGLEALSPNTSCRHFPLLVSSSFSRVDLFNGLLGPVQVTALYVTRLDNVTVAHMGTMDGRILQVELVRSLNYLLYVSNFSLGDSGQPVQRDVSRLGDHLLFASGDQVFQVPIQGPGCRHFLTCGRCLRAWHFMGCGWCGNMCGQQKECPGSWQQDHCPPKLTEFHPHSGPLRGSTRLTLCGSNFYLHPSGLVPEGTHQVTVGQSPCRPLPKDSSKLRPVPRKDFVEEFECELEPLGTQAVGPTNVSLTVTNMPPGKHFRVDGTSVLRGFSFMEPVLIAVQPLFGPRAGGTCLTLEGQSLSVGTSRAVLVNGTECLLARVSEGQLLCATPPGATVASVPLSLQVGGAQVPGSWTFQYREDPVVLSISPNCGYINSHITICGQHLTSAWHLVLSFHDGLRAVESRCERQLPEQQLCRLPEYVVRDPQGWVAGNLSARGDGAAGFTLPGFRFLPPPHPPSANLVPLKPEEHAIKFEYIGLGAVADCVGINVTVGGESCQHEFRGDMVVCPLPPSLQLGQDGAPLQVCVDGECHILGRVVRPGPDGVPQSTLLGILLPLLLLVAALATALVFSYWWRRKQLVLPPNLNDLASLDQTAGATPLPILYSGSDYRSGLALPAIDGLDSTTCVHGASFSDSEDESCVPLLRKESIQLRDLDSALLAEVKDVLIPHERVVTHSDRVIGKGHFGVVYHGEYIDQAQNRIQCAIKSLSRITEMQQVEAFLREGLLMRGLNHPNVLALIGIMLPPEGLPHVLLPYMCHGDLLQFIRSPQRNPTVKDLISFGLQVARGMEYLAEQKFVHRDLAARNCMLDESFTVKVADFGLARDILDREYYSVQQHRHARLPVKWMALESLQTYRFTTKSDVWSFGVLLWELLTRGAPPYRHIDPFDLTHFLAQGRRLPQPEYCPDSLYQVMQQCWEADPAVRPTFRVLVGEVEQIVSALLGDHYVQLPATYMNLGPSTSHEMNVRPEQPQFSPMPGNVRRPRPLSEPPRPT
Sequence of cMET (P08581 25-1390): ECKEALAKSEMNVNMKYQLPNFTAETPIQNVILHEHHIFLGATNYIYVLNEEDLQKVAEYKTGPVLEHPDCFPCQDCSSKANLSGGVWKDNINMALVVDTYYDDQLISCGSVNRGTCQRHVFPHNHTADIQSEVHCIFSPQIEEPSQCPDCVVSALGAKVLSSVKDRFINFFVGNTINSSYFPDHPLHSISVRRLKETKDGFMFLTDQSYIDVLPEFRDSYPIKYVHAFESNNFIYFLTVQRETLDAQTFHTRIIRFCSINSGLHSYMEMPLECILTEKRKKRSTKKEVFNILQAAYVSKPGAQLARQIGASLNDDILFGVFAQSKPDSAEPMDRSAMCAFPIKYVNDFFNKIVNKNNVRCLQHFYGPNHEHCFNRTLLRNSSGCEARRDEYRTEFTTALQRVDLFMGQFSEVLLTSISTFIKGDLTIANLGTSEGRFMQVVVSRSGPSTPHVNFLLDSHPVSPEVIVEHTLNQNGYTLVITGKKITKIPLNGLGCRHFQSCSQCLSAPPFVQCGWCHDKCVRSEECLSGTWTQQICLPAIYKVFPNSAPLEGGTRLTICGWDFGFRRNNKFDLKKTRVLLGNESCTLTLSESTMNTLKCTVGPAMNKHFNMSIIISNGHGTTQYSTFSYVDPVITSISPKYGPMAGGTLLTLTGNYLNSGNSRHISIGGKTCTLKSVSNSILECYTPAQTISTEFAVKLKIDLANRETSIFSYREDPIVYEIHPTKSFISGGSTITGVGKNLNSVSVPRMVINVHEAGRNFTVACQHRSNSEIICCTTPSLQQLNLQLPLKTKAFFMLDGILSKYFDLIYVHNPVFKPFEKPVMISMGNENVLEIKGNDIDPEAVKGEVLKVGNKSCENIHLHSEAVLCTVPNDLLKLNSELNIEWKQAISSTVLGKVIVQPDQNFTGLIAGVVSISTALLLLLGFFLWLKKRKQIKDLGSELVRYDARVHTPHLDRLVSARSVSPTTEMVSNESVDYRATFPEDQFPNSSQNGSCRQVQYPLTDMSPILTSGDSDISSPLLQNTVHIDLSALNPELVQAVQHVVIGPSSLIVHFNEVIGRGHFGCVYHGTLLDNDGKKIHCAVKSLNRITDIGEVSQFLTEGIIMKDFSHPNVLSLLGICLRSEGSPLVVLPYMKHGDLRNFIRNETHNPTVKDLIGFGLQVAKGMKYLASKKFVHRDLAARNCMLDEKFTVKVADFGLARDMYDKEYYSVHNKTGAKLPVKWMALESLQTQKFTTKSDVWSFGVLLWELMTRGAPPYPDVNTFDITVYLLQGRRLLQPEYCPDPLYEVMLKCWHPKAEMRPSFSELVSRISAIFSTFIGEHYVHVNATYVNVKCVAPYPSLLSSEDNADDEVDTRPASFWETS

`Nc1ncnc(Oc2ccc(NC(=O)c3cnn(-c4ccncc4)c3C(F)(F)F)cc2F)c1Cl` [Example 57, N-[4-(6-amino-5-chloro-pyrimidin-4-yl)oxy-3-fluoro-phenyl]-1-(4-pyridyl)-5-(trifluoromethyl)pyrazole-4-carboxamide]: the IC50 – broadly, the concentration at which inhibition is half-maximal – at RON was 500 to 5000 nM; at cMET, more than 5000 nM.
Take `CCc1ccnc(-n2ncc(C(=O)Nc3ccc(Oc4ncnc(N)c4Cl)c(F)c3)c2C(F)(F)F)c1` [Example 55, N-[4-(6-amino-5-chloro-pyrimidin-4-yl)oxy-3-fluoro-phenyl]-1-(4-ethyl-2-pyridyl)-5-(trifluoromethyl)pyrazole-4-carboxamide]: the IC50 was 500 to 5000 nM against RON and more than 5000 nM against cMET.
With `Nc1ncnc(Oc2ccc(NC(=O)c3cnn(-c4ccc(F)cn4)c3C(F)(F)F)cc2F)c1Cl` [Example 50, N-[4-(6-amino-5-chloro-pyrimidin-4-yl)oxy-3-fluoro-phenyl]-1-(5-fluoro-2-pyridyl)-5-(trifluoromethyl)pyrazole-4-carboxamide], the IC50 was 50 to 500 nM against RON and more than 5000 nM on cMET.
On to `CCc1cccnc1-n1ncc(C(=O)Nc2ccc(Oc3ncnc(N)c3Cl)c(F)c2)c1C(F)(F)F` [Example 58, N-[4-(6-amino-5-chloro-pyrimidin-4-yl)oxy-3-fluoro-phenyl]-1-(3-ethyl-2-pyridyl)-5-(trifluoromethyl)pyrazole-4-carboxamide], for which the figures for the IC50 on RON and at cMET were 50 to 500 nM and more than 5000 nM, respectively.
With `Cc1c(C(=O)Nc2ccc(Oc3ccnc(N)c3Cl)c(F)c2)cnn1-c1cncnc1` [Example 7, N-(4-((2-amino-3-chloropyridin-4-yl)oxy)-3-fluorophenyl)-5-methyl-1-(pyrimidin-5-yl)-1H-pyrazole-4-carboxamide], the IC50 against RON was 50 to 500 nM; on cMET, more than 5000 nM.
Regarding `Nc1ncnc(Oc2ccc(NC(=O)c3cnn(-c4ccncn4)c3C(F)(F)F)cc2F)c1Cl` [Example 61, N-[4-(6-amino-5-chloro-pyrimidin-4-yl)oxy-3-fluoro-phenyl]-1-pyrimidin-4-yl-5-(trifluoromethyl)pyrazole-4-carboxamide], the figures for the IC50 at RON and against cMET were 500 to 5000 nM and more than 5000 nM, respectively.
Consider `Cc1csc(-n2ncc(C(=O)Nc3ccc(Oc4ccnc(N)c4Cl)c(F)c3)c2C(F)(F)F)n1` [Example 40, N-(4-((2-amino-3-chloropyridin-4-yl)oxy)-3-fluorophenyl)-1-(4-methylthiazol-2-yl)-5-(trifluoromethyl)-1H-pyrazole-4-carboxamide], for which the IC50 against RON was 50 to 500 nM; at cMET it was more than 5000 nM.
In the case of `Cc1cccc(-n2ncc(C(=O)Nc3ccc(Oc4ccnc(N)c4Cl)c(F)c3)c2C(F)(F)F)n1` [Example 17, N-(4-((2-amino-3-chloropyridin-4-yl)oxy)-3-fluorophenyl)-1-(6-methylpyridin-2-yl)-5-(trifluoromethyl)-1H-pyrazole-4-carboxamide], the IC50 lay in the range of 50 to 500 nM against RON and 500 to 5000 nM against cMET.
For the compound `Nc1ncnc(Oc2ccc(NC(=O)c3cnn(-c4cc(F)ccn4)c3C(F)(F)F)cc2F)c1Cl` [Example 63, N-[4-(6-amino-5-chloro-pyrimidin-4-yl)oxy-3-fluoro-phenyl]-1-(4-fluoro-2-pyridyl)-5-(trifluoromethyl)pyrazole-4-carboxamide], the IC50 against RON was 50 to 500 nM; on cMET it was more than 5000 nM.
Consider `Nc1nccc(Oc2ccc(NC(=O)c3cnn(-c4ncc(F)cc4F)c3C(F)(F)F)cc2F)c1Cl` [Example 29, N-(4-((2-amino-3-chloropyridin-4-yl)oxy)-3-fluorophenyl)-1-(3,5-difluoropyridin-2-yl)-5-(trifluoromethyl)-1H-pyrazole-4-carboxamide], for which the IC50 is less than 50 nM on RON and more than 5000 nM against cMET.
